According to patent US9062041B2 (Bayer Intellectual Property GmbH, priority 2011, dated 2015):

Columns and labels:
Assay type in all cases: cell-based
[1] = biological target: EP2 subtype of the human PGE2 receptor (Homo sapiens, UniProt P43116); assay: cAMP antagonism test on the human EP2 receptor (HTRF cAMP detection); conditions: hEP2 receptor, read-out: Antagonism hEP2 IC50
Outline: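 Read-out is a competitive HTRF for cAMP: lysate cAMP displaces cAMP-d2 from Eu cryptate-labelled antibody, and antagonism raises the 665/620 nm ratio. Compound (0.8 nM–16.5 μM) added to EP2 cells 20 min at RT before 60 min PGE2 challenge (3× stock 1.5 nM) with IBMX, followed by 20 min lysis.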

[2] = biological target: EP4 subtype of the human PGE2 receptor (Homo sapiens, UniProt P35408); assay: cAMP antagonism test on the human EP4 receptor (HTRF cAMP detection); conditions: selectivity towards hEP4, IC50 measured by cAMP antagonism test
Chain of EP4 subtype of the human PGE2 receptor (P35408 whole entry): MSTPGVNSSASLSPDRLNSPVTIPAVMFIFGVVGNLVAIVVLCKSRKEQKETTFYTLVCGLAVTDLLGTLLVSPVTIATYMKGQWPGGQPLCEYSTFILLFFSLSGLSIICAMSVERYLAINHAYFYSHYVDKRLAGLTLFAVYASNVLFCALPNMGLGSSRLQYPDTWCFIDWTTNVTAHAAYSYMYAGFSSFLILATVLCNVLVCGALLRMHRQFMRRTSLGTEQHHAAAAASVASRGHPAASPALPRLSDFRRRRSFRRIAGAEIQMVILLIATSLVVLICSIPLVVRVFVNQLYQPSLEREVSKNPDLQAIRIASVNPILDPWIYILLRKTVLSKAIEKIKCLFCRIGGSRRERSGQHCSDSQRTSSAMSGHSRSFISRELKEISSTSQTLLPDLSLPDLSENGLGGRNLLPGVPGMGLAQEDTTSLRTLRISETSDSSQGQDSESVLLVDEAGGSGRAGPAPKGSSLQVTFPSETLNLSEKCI
Outline: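 Competitive HTRF cAMP read-out (cAMP-d2 vs Eu-cryptate anti-cAMP antibody, 665/620 nm ratio) on lysed human EP4 cells. Compound (0.8 nM–16.5 μM) applied 20 min at RT before 60 min PGE2 challenge (3× solution 0.3 nM, IBMX present); 20 min lysis precedes reading.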

human PGD receptor = biological target: T1, human PGD receptor (Homo sapiens, UniProt Q13258); assay: cAMP antagonism test on the human prostaglandin D receptor (HTRF cAMP detection); conditions: selectivity towards hDP, IC50 measured by cAMP antagonism test
T1 sequence (Q13258 1-359): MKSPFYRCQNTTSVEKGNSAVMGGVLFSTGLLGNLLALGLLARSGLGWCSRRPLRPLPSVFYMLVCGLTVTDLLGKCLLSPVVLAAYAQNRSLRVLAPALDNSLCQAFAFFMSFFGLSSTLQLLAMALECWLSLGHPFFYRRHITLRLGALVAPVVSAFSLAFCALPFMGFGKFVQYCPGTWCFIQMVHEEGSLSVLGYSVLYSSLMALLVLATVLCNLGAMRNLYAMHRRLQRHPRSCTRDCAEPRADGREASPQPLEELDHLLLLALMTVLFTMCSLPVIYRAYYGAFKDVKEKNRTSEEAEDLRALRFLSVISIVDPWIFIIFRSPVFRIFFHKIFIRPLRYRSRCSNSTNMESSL
Outline: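 HTRF competition read-out (665/620 nm ratio ×10000), where higher FRET means less cAMP, i.e. antagonism. Compounds (0.8 nM–16.5 μM) were preincubated 20 min at RT with cells and cAMP-d2, PGD2 (3× solution, 6 nM) in IBMX-containing PBS added for 30 min at RT, then cells lysed 20 min.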

Chain of EP2 subtype of the human PGE2 receptor (P43116 whole entry): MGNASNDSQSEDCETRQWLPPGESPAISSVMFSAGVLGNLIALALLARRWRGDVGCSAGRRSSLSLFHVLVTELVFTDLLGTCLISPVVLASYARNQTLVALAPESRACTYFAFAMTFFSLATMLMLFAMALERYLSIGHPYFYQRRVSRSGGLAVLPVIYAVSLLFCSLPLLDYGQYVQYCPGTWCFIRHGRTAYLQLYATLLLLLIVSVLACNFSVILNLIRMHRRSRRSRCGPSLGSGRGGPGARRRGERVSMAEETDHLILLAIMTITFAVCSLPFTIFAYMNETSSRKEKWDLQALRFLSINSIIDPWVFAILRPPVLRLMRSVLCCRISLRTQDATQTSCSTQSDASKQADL

IC50 [1]	Selectivity hEP2/hEP4 [2]	Selectivity hEP2/hDP (human PGD receptor)	Structure (SMILES)
1.05 µM	xx (xx: 10-100)	xx (xx: 10-100)	Cc1c(C(=O)NCC(F)(F)F)ccc2nn(CC3CCN(C(=O)c4ccc(N5CCOCC5)cc4)CC3)cc12 [Example 287, 4-methyl-2-{[1-(4-morpholinobenzoyl)piperidin-4-yl]methyl}-N-(2,2,2-trifluoro-ethyl)-2H-indazol-5-carboxamide]
0.00578 µM	xxx (xxx > 100)	xxx (xxx > 100)	COCCNC(=O)c1ccc2nn(CC3CCN(C(=O)c4ccc(-c5ccc(Cl)cc5F)cc4)CC3)cc2c1C [Example 383, 2-({1-[(4′-chloro-2′-fluorobiphenyl-4-yl)carbonyl]piperidin-4-yl}methyl)-N-(2-methoxyethyl)-4-methyl-2H-indazol-5-carboxamide]
1.21 µM	xx (xx: 10-100)	xx (xx: 10-100)	Cc1ncc(-c2ccc(C(=O)N3CCC(Cn4cc5c(C)c(C(=O)NCC(F)(F)F)ccc5n4)CC3)cc2)cn1 [Example 327, 4-methyl-2-({1-[4-(2-methylpyrimidin-5-yl)benzoyl]piperidin-4-yl}methyl)-N-(2,2,2-trifluoroethyl)-2H-indazol-5-carboxamide]
0.00661 µM	xxx (xxx > 100)	xxx (xxx > 100)	COCCNC(=O)c1ccc2nn(CC3CCN(C(=O)c4ccc(-c5ccc(OC)cc5F)cc4F)CC3)cc2c1C [Example 364, 2-({1-[(2′,3-difluoro-4′-methoxybiphenyl-4-yl)carbonyl]piperidin-4-yl}methyl)-N-(2-methoxyethyl)-4-methyl-2H-indazol-5-carboxamide]
0.0378 µM	xxx (xxx > 100)	xxx (xxx > 100)	Cc1c(C(=O)NCC2COCCO2)ccc2nn(CC3CCN(C(=O)c4ccc(Cl)cc4)CC3)cc12 (racemic) [Example 413, (+/−)-2-{[1-(4-chlorobenzoyl)piperidin-4-yl]methyl}-N-(1,4-dioxan-2-ylmethyl)-4-methyl-2H-indazol-5-carboxamide]

Second part, the compound before the results:

Structure (SMILES)	IC50 [1]	Selectivity hEP2/hEP4 [2]	Selectivity hEP2/hDP (human PGD receptor)
Cc1c(C(=O)NCCN2CCOCC2)ccc2nn(CC3CCN(C(=O)c4ccc(Cl)cc4)CC3)cc12 [Example 62, 2-{[1-(4-chlorobenzoyl)piperidin-4-yl]methyl}-4-methyl-N-(2-morpholinoethyl)-2H-indazol-5-carboxamide]	0.674 µM	xx (xx: 10-100)	xx (xx: 10-100)
Cc1c(C(=O)NCC(F)(F)F)ccc2nn(CC3CCN(C(=O)c4ccc(-c5ccc(F)cc5)cc4)CC3)cc12 [Example 286, 2-({1-[(4′-fluorobiphenyl-4-yl)carbonyl]piperidin-4-yl}methyl)-4-methyl-N-(2,2,2-trifluoroethyl)-2H-indazol-5-carboxamide]	0.1 µM	xxx (xxx > 100)	xxx (xxx > 100)
COC(C)CNC(=O)c1cc2cn(CC3CN(C(=O)c4ccc(Cl)cc4)C3)nc2cc1C (racemic) [Example 192, (+/−)-2-{[1-(4-chlorobenzoyl)azetidin-3-yl]methyl}-N-(2-methoxypropyl)-6-methyl-2H-indazol-5-carboxamide]	0.206 µM	xx (xx: 10-100)	xx (xx: 10-100)
COCCNC(=O)c1ccc2nn(CC3CCN(C(=O)c4ccc(-c5cccc(C(F)(F)F)c5)cc4F)CC3)cc2c1C [Example 45, 2-[(1-{[3-fluoro-3′-(trifluoromethyl)-biphenyl-4-yl]-carbonyl}-piperidin-4-yl)-methyl]-N-(2-methoxyethyl)-4-methyl-2H-indazol-5-carboxamide]	0.00551 µM	xxx (xxx > 100)	xxx (xxx > 100)
COCCNC(=O)c1ccc2nn(CC3CCN(C(=O)c4ccc(Cl)cc4)CC3)cc2c1OC [Example 262, 2-{[1-(4-chlorobenzoyl)piperidin-4-yl]methyl}-4-methoxy-N-(2-methoxyethyl)-2H-indazol-5-carboxamide]	0.0334 µM	xxx (xxx > 100)	xxx (xxx > 100)
